{"source": "patent US10859587B2", "about": "“Application of artificially expressed HSP27 protein in detecting a residue of a β2-adrenergic receptor agonist-based drug” (HENAN ACADEMY OF AGRICULTURAL SCIENCE, priority 2016, dated 2020)", "key": {"[1]": {"tested_on": "artificially expressed HSP27 protein", "experiment": "ELISA binding experiment between HSP27 protein and biotin-conjugated small molecules", "conditions": "100 ng/mL biotin-conjugated small molecule; HSP27 coated in gradient from 100 μg/mL", "experimental": "1. The bacteria solution of BL21 (DE3) host bacteria of artificially expressed HSP27 was subjected to ultrasonication, and then coated in gradient on a ELISA plate with an initial concentration of 100 μg/mL (based on the protein) in an amount of 50 μL/well;\n2. 100 ng/mL of small molecules conjugated biotin was added into the resultant ELISA plate in an amount of 50 μL/well, mixed well on a shaker, and incubated at 37° C. for 30 min in the dark; the ELISA plate was washed with an ELISA plate washing machine for 4 times, or the liquid in the wells of the ELISA plate was manually removed by shaking out, each well was filled with diluted buffer solution, and then shaken out the liquid to dry again, and washing as repeated in this way for 4 times;\n3. HRP-labeled streptavidin conjugate was added into the ELISA plate, and the reaction was carried out at 37° C. for 30 min; washing was performed in the same way as the above step for 4 times.\n4. TMB solution was added into corresponding microwells according to the required amount of 100 μL per well, and the plate was shaken on the ELISA plate shaker for 30 s, and subjected to color development at room temperature for 10 min;\n5. 50 μL of 2 mol/L sulfuric acid was added to each well to terminate the reaction, and the plate was shaken on the ELISA plate shaker for 30 s, and then the absorbance at 450 nm of each well was read with a microplate reader, and the results were judged (see FIG. 2 for the results)."}, "[2]": {"tested_on": "HSP27 polyclonal antiserum", "experiment": "ELISA identification of artificially expressed HSP27 protein with HSP27 polyclonal antiserum", "assay_type": "binding", "conditions": "HSP27 1 μg/mL", "experimental": "The artificially expressed HSP27 protein at an optimal concentration was selected as a coating antigen, and coated on the ELISA plate in an amount of 50 μL/well. The plate was placed in a 37° C. constant temperature incubator for reaction for 2 h, washed with PBST for 4 times, and air-dried at room temperature. BSA with a mass fraction of 1% was added as a blocking solution in amount of 200 μL/well, and reaction was carried out at a constant temperature of 37° C. for 1 h. The resultant plate was washed with PBST for 4 times, and air-dried at room temperature. Then, HSP27 polyclonal antiserum with gradient concentrations was added at 50 μL/well, a negative control (NC) was set, and the plate was held at 37° C. for 30 min, and washed for 4 times. 50 μL of goat anti-mouse secondary antibody (1:1000) was added to each well, and the plate was held at 37° C. for 30 min, and then washed for 4 times. The color development reaction was carried out with TMB color developing solution in an amount of 100 μL/well, and 10 minutes later, the reaction was terminated with 50 μL of 2 mol/L H2SO4. The absorbance of each well was read at 450 nm with a microplate reader."}}, "data": [{"compound": "CC(Cc1ccc(O)cc1)NCC(O)c1cc(O)cc(O)c1", "note": "(stereo not shown) [Fenoterol]", "values": [{"measurement": "binding to HSP27 (ELISA, absorbance at 450 nm, FIG. 2)", "setting": "[1]", "result": "can bind to HSP27"}]}, {"compound": "CC(CCc1ccc(O)cc1)NCC(O)c1ccc(O)cc1", "note": "(racemic) [Ractopamine]", "values": [{"measurement": "binding to HSP27 (ELISA, absorbance at 450 nm, FIG. 2)", "setting": "[1]", "result": "can bind to HSP27"}]}, {"compound": "CC(C)(C)NCC(O)c1cc(Cl)c(N)c(Cl)c1", "note": "(stereo not shown) [Clenbuterol]", "values": [{"measurement": "binding to HSP27 (ELISA, absorbance at 450 nm, FIG. 2)", "setting": "[1]", "result": "can bind to HSP27"}]}, {"compound": "artificially expressed HSP27 protein: HSP27 CDS cloned in pLSLa vector, expressed in BL21 (DE3) with IPTG, purified by agarose resin column", "values": [{"measurement": "absorbance at 450 nm", "setting": "[2]; serum dilution ratio 5000", "result": 4.00}, {"measurement": "absorbance at 450 nm", "setting": "[2]; serum dilution ratio 10000", "result": 3.92}, {"measurement": "absorbance at 450 nm", "setting": "[2]; serum dilution ratio 20000", "result": 4.00}, {"measurement": "absorbance at 450 nm", "setting": "[2]; serum dilution ratio 40000", "result": 3.77}, {"measurement": "absorbance at 450 nm", "setting": "[2]; serum dilution ratio 80000", "result": 3.50}, {"measurement": "absorbance at 450 nm", "setting": "[2]; serum dilution ratio 160000", "result": 2.60}, {"measurement": "absorbance at 450 nm", "setting": "[2]; serum dilution ratio 320000", "result": 1.63}, {"measurement": "absorbance at 450 nm", "setting": "[2]; serum dilution ratio 640000", "result": 0.97}, {"measurement": "absorbance at 450 nm", "setting": "[2]; serum dilution ratio 1280000", "result": 0.67}, {"measurement": "absorbance at 450 nm", "setting": "[2]; serum dilution ratio 2560000", "result": 0.51}]}]}
